Laboratory results reported in patent publication US10556874B2, “N-(1,3,4-oxadiazol-2-yl)aryl carboxamide derivatives with herbicidal action” (Bayer CropScience Aktiengesellschaft, priority 2015, dated 2020).

Experiments:
Type in all cases: in vivo
[1] = test system: Alopecurus myosuroides (ALOMY); experiment: Comparative experiment in pre-emergence; details: dosage 80 g/ha, 100% = plants have died, 0% = like control plants
From the text: (§1) Seeds of monocotyledonous and dicotyledonous weed plants and crop plants are laid out in wood-fiber pots in sandy loam and covered with soil. The compounds of the invention, formulated in the form of wettable powders (WP) or as emulsion concentrates (EC), are then applied to the surface of the covering soil in the form of an aqueous suspension or emulsion at a water application rate equating to 600 to 800 l/ha, with addition of 0.2% wetting agent. After the treatment, the pots are placed in a greenhouse and kept under good growth conditions for the trial plants. The damage to the test plants is scored visually after a test period of 3 weeks by comparison with untreated controls (herbicidal activity in percent (%): 100% activity=the plants have died, 0% activity=like control plants). Here, for example, the compounds Nos. 1-145, 1-385, 3-385, 4-145, 4-385, 6-385, 7-145, 7-385 and 9-385, at an application rate of 320 g/ha, each show an activity of at least 80% against Stellaria media and Veronica persica.
3. Comparative Experiment in Pre-Emergence
For comparative purposes, the herbicidal activity of some compounds according to the invention and the most structurally similar compounds known from the prior art were tested.

[2] = test system: Amaranthus retroflexus; experiment: Post-emergence herbicidal action against harmful plants; details: 504 h, application rate 80 g/ha, assessed visually after about 3 weeks vs untreated controls, read-out: herbicidal action in percent
Method: (§2) 2. Post-Emergence Herbicidal Action Against Harmful Plants
(§3) Seeds of monocotyledonous and dicotyledonous weed and crop plants are laid out in sandy loam soil in wood-fiber pots, covered with soil and cultivated in a greenhouse under good growth conditions. 2 to 3 weeks after sowing, the test plants are treated at the one-leaf stage. The compounds of the invention, formulated in the form of wettable powders (WP) or as emulsion concentrates (EC), are then sprayed onto the green parts of the plants in the form of an aqueous suspension or emulsion at a water application rate equating to 600 to 800 l/ha, with addition of 0.2% wetting agent. After the test plants have been left to stand in the greenhouse under optimal growth conditions for about 3 weeks, the action of the preparations is assessed visually in comparison to untreated controls (herbicidal action in percent (%): 100% activity=the plants have died, 0% activity=like control plants). Here, for example, the compounds Nos. 1-145, 1-385, 3-385, 4-145, 4-385, 6-385, 7-145, 7-385 and 9-385, at an application rate of 80 g/ha, each show an activity of at least 80% against Stellaria media and Amaranthus retroflexus.

[3] = test system: Stellaria media; experiment: as above; details: 504 h, application rate 80 g/ha, assessed visually after about 3 weeks vs untreated controls, read-out: herbicidal action in percent
Method: as §2, §3

[4] = test system: Veronica persica; experiment: Pre-emergence herbicidal action against harmful plants; details: 504 h, application rate 320 g/ha, scored visually after 3 weeks vs untreated controls, read-out: herbicidal activity in percent
From the text: (§4) 1. Pre-Emergence Herbicidal Action Against Harmful Plants
as §1

[5] = test system: Stellaria media; experiment: as above; details: 504 h, application rate 320 g/ha, scored visually after 3 weeks vs untreated controls, read-out: herbicidal activity in percent
From the text: as §4, §1

In the case of `CCOC(=O)OC(C)N(C(=O)c1ccc(C(F)(F)F)c(S(C)(=O)=O)c1C)c1nnc(C)o1` (stereo not shown) [Compound No. 1-145, ethyl 1-{[2-methyl-3-(methylsulfonyl)-4-(trifluoromethyl)benzoyl](5-methyl-1,3,4-oxadiazol-2-yl)amino}ethyl carbonate], the “Herbicidal activity against ALOMY” value [1] is reported as 100%, the pest or weed control at 80 g/ha [2] is reported as ≥ 80% and the pest or weed control at 80 g/ha [3] is reported as ≥ 80%. The pest or weed control at 320 g/ha [4] was ≥ 80% and the pest or weed control at 320 g/ha [5] was ≥ 80%.
With `CCOC(=O)OC(C)N(C(=O)c1ccc(C(F)(F)F)c([S+](C)[O-])c1Cl)c1nnc(C)o1` (stereo not shown) [Compound No. 1-385, 1-{[2-chloro-3-(methylsulfinyl)-4-(trifluoromethyl)benzoyl](5-methyl-1,3,4-oxadiazol-2-yl)amino}ethyl ethyl carbonate] the pest or weed control at 80 g/ha [2] was ≥ 80%, the pest or weed control at 80 g/ha [3] was ≥ 80% and the pest or weed control at 320 g/ha [4] was ≥ 80%. For the same molecule, the pest or weed control at 320 g/ha [5] was ≥ 80%.
In the case of `Cc1nnc(N(C(=O)c2ccc(C(F)(F)F)c([S+](C)[O-])c2Cl)C(C)OC(=O)OC2CCCCC2)o1` (stereo not shown) [Compound No. 3-385, 1-{[2-chloro-3-(methylsulfinyl)-4-(trifluoromethyl)benzoyl](5-methyl-1,3,4-oxadiazol-2-yl)amino}ethyl cyclohexyl carbonate], the “Herbicidal activity against ALOMY” value [1] is reported as 100%, the pest or weed control at 80 g/ha [2] is reported as ≥ 80% and the pest or weed control at 80 g/ha [3] is reported as ≥ 80%. For the same molecule, the pest or weed control at 320 g/ha [4] was ≥ 80% and the pest or weed control at 320 g/ha [5] was ≥ 80%.
`CCOC(=O)OC(C)n1nc(C)oc1=NC(=O)c1ccc(C(F)(F)F)c(S(C)(=O)=O)c1C` (stereo not shown) [Compound No. 4-145, ethyl 1-[5-methyl-2-{[2-methyl-3-(methylsulfonyl)-4-(trifluoromethyl)benzoyl]imino}-1,3,4-oxadiazol-3(2H)-yl]ethyl carbonate] was tested, and the pest or weed control at 80 g/ha [2] was ≥ 80%, the pest or weed control at 80 g/ha [3] was ≥ 80% and the pest or weed control at 320 g/ha [4] was ≥ 80%. For the same molecule, the pest or weed control at 320 g/ha [5] was ≥ 80%.
In the case of `CCOC(=O)OC(C)n1nc(C)oc1=NC(=O)c1ccc(C(F)(F)F)c([S+](C)[O-])c1Cl` (stereo not shown) [Compound No. 4-385, ethyl 1-[5-methyl-2-{[2-chloro-3-(methylsulfinyl)-4-(trifluoromethyl)benzoyl]imino}-1,3,4-oxadiazol-3(2H)-yl]ethyl carbonate], the pest or weed control at 80 g/ha [2] is reported as ≥ 80%, the pest or weed control at 80 g/ha [3] is reported as ≥ 80% and the pest or weed control at 320 g/ha [4] is reported as ≥ 80%. The pest or weed control at 320 g/ha [5] was ≥ 80%.
With `Cc1nn(C(C)OC(=O)OC2CCCCC2)c(=NC(=O)c2ccc(C(F)(F)F)c([S+](C)[O-])c2Cl)o1` (stereo not shown) [Compound No. 6-385, 1-[2-{[2-chloro-3-(methylsulfinyl)-4-(trifluoromethyl)benzoyl]imino}-5-methyl-1,3,4-oxadiazol-3(2H)-yl]ethyl cyclohexyl carbonate] the pest or weed control at 80 g/ha [2] was ≥ 80%, the pest or weed control at 80 g/ha [3] was ≥ 80% and the pest or weed control at 320 g/ha [4] was ≥ 80%. The pest or weed control at 320 g/ha [5] was ≥ 80%.
For `CCOC(=O)OC(C)OC(=Nc1nnc(C)o1)c1ccc(C(F)(F)F)c(S(C)(=O)=O)c1C` (stereo not shown) [Compound No. 7-145, 1-[(ethoxycarbonyl)oxy]ethyl-2-methyl-N-(5-methyl-1,3,4-oxadiazol-2-yl)-3-(methylsulfonyl)-4-(trifluoromethyl)benzenecarboximidate], the pest or weed control at 80 g/ha [2] was ≥ 80%, the pest or weed control at 80 g/ha [3] was ≥ 80% and the pest or weed control at 320 g/ha [4] was ≥ 80%. The pest or weed control at 320 g/ha [5] was ≥ 80%.
`CCOC(=O)OC(C)OC(=Nc1nnc(C)o1)c1ccc(C(F)(F)F)c([S+](C)[O-])c1Cl` (stereo not shown) [Compound No. 7-385, 1-[(ethoxycarbonyl)oxy]ethyl-2-chloro-N-(5-methyl-1,3,4-oxadiazol-2-yl)-3-(methylsulfinyl)-4-(trifluoromethyl)benzenecarboximidate] was tested, and the “Herbicidal activity against ALOMY” value [1] was 90%, the pest or weed control at 80 g/ha [2] was ≥ 80% and the pest or weed control at 80 g/ha [3] was ≥ 80%. For the same molecule, the pest or weed control at 320 g/ha [4] was ≥ 80% and the pest or weed control at 320 g/ha [5] was ≥ 80%.
`Cc1nnc(N=C(OC(C)OC(=O)OC2CCCCC2)c2ccc(C(F)(F)F)c([S+](C)[O-])c2Cl)o1` (stereo not shown) [Compound No. 9-385, 1-{[(cyclohexyloxy)carbonyl]oxy}ethyl-2-chloro-N-(5-methyl-1,3,4-oxadiazol-2-yl)-3-(methylsulfinyl)-4-(trifluoromethyl)benzenecarboximidate] was tested, and the “Herbicidal activity against ALOMY” value [1] was 90%, the pest or weed control at 80 g/ha [2] was ≥ 80% and the pest or weed control at 80 g/ha [3] was ≥ 80%. For the same molecule, the pest or weed control at 320 g/ha [4] was ≥ 80% and the pest or weed control at 320 g/ha [5] was ≥ 80%.
